In patent US20240117431A1, “STEM-CELL BASED BIOMARKER DISCOVERY” (THE REGENTS OF THE UNIVERSITY OF CALIFORNIA, priority 2020, published 2024):

Biological target: T1, Methionine-tRNA Synthetase L272G (MethL272G) iPSCs (Homo sapiens, UniProt P56192, L272G)
T1 construct: Using CRISPR gene editing, this locus was successfully modified in a human iPSC line; endogenous in cells; host or cells: human iPSC line ADRC 76, CRISPR-edited
T1 sequence (P56192 1-900 L272G): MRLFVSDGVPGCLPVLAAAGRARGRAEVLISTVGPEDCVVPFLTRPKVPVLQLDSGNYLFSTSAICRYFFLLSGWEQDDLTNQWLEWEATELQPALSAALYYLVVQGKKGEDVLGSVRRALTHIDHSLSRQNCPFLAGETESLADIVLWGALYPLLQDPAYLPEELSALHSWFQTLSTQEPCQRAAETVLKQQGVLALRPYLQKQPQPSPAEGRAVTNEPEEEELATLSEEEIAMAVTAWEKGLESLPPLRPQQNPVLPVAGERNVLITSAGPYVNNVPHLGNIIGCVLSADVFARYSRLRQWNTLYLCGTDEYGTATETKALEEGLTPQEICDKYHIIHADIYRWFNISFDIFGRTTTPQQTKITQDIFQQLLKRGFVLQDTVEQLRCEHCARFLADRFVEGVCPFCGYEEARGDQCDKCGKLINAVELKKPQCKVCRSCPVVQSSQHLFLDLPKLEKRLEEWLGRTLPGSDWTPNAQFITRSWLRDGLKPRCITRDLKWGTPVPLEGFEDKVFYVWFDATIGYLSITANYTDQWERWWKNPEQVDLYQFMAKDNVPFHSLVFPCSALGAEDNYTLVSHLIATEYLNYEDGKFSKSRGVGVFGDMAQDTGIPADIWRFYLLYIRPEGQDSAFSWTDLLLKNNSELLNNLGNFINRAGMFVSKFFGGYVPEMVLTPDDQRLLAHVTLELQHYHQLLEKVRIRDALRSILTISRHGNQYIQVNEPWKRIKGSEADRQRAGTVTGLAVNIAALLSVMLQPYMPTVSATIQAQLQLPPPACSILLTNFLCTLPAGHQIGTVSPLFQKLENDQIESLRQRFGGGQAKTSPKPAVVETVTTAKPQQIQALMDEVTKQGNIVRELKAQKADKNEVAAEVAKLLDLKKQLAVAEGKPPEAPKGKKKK
Assay: ANL incorporation into nascent protein of iPSCs (BONCAT western blot, TAMRA confocal microscopy)
Type: cell-based
Conditions: 1.5 mM ANL, 14 hrs
Method: Validation by Western Blot: Wild-type (WT) and MethL272G iPSCs were cultured in 6-well plate with and without 1.5 mM ANL (Tocris 6585) for 14 hrs in DMEM/F12 Silac media without Methionine (AthenaES 0433) supplemented with TeSR™-E8™ 25× Supplement. (Note: Methionine-absent media is described as Metia below.) Cells were dissociated and collected using TrypLE Express (Gibco 12605028) for 3 min at 37° C., isolated, and lysed in Ripa buffer with Halt Protease Inhibitor Cocktail (ThermoFisher Scientific 78429) and Halt Phosphatase Inhibitor Cocktail (ThermoFisher Scientific 78426). 200 μg of protein was labeled for analysis using Click-iT Protein Analysis TAMRA alkyne Detection Kit (Invitrogen C33370) that tags the azide of ANL incorporated protein with a TAMRA-alkyne tag via the following reaction:
The resulting protein pellets were boiled in 120 μl of Loading Buffer and boiled for 15 minutes at 70° C., which were then loaded into a 4-15% Criterion TGX 12-well Gel (Bio-Rad 5671083) for electrophoresis, then transferred to Trans-Blot® Turbo™ Midi Nitrocellulose Membrane (Bio-Rad 1704159) for analysis. Protein was probed with TAMRA Monoclonal Antibody (5G5) (Invitrogen MA1-041) followed by anti-mouse secondary for imaging. […]

Compound: [N-]=[N+]=NCCCC[C@H](N)C(=O)O [ANL, L-azidonorleucine]
- labeling of cellular protein (TAMRA confocal microscopy) (control ADRC76 versus MethL272G iPSCs, FIG. 2A): labeling of cellular protein only in mutated MethL272G iPSCs
- BONCAT labeling of ANL-incorporated protein (western blot) (methionine-absent media, FIG. 1B): successful BONCAT labeling
